What was measured:
[1] = test system: Staphylococcus aureus; test: Antibacterial activity against Staphylococcus aureus ATCC29213 assessed as inhibition of visible growth incubated for 16 to 18 hrs by CLSI method; format: functional; details: time 16-18 hrs, read-out: MIC100
[2] = test system: Salmonella enterica; test: Antibacterial activity against Salmonella enterica 8389 assessed as inhibition of visible growth incubated for 16 to 18 hrs by CLSI method; format: functional; details: time 16-18 hrs, read-out: MIC100
[3] = test system: Staphylococcus aureus; test: Antibacterial activity against methicillin-resistant Staphylococcus aureus clinical isolate M-15 assessed as inhibition of visible growth incubated for 16 to 18 hrs by CLSI method; format: functional; details: time 16-18 hrs, read-out: MIC100
[4] = test system: Staphylococcus aureus; test: Antibacterial activity against methicillin-resistant Staphylococcus aureus clinical isolate M-16 assessed as inhibition of visible growth incubated for 16 to 18 hrs by CLSI method; format: functional; details: time 16-18 hrs, read-out: MIC100
[5] = test system: Bacillus subtilis; test: Antibacterial activity against Bacillus subtilis assessed as inhibition of visible growth incubated for 16 to 18 hrs by CLSI method; format: functional; details: time 16-18 hrs, read-out: MIC100
[6] = Selectivity index, HC50 for hemolytic activity in sheep RBC to MIC for antibacterial activity against Staphylococcus aureus ATCC29213; format: toxicity; details: sheep red blood cells (erythrocytes), read-out: Selectivity Index
[7] = test system: Escherichia coli; test: Antibacterial activity against Escherichia coli ATCC25922 assessed as inhibition of visible growth incubated for 16 to 18 hrs by CLSI method; format: functional; details: time 16-18 hrs, read-out: MIC100
[8] = test system: Staphylococcus aureus; test: Antibacterial activity against methicillin-resistant Staphylococcus aureus clinical isolate M-17 assessed as inhibition of visible growth incubated for 16 to 18 hrs by CLSI method; format: functional; details: time 16-18 hrs, read-out: MIC100
[9] = test system: Salmonella enterica; test: Antibacterial activity against Salmonella enterica 349812 assessed as inhibition of visible growth incubated for 16 to 18 hrs by CLSI method; format: functional; details: time 16-18 hrs, read-out: MIC100
[10] = test system: Staphylococcus aureus; test: Antibacterial activity against methicillin-resistant Staphylococcus aureus clinical isolate M-20 assessed as inhibition of visible growth incubated for 16 to 18 hrs by CLSI method; format: functional; details: time 16-18 hrs, read-out: MIC100
[11] = test system: Staphylococcus aureus; test: Antibacterial activity against methicillin-resistant Staphylococcus aureus clinical isolate M-18 assessed as inhibition of visible growth incubated for 16 to 18 hrs by CLSI method; format: functional; details: time 16-18 hrs, read-out: MIC100
[12] = test system: Micrococcus luteus; test: Antibacterial activity against Micrococcus luteus assessed as inhibition of visible growth incubated for 16 to 18 hrs by CLSI method; format: functional; details: time 16-18 hrs, read-out: MIC100
[13] = test system: Stenotrophomonas maltophilia; test: Antibacterial activity against Stenotrophomonas maltophilia assessed as inhibition of visible growth incubated for 16 to 18 hrs by CLSI method; format: functional; details: time 16-18 hrs, read-out: MIC100
[14] = test system: Staphylococcus aureus; test: Antibacterial activity against methicillin-resistant Staphylococcus aureus clinical isolate M-11 assessed as inhibition of visible growth incubated for 16 to 18 hrs by CLSI method; format: functional; details: time 16-18 hrs, read-out: MIC100
[15] = test system: Staphylococcus aureus; test: Antibacterial activity against methicillin-resistant Staphylococcus aureus clinical isolate M-14 assessed as inhibition of visible growth incubated for 16 to 18 hrs by CLSI method; format: functional; details: time 16-18 hrs, read-out: MIC100
[16] = Hemolytic activity in sheep RBC assessed as hemolysis incubated for 1 hr; format: ADME, cell-based, Ovis aries, Erythrocyte; details: sheep red blood cells (erythrocytes)
[17] = test system: Staphylococcus aureus; test: Antibacterial activity against methicillin-resistant Staphylococcus aureus clinical isolate M-13 assessed as inhibition of visible growth incubated for 16 to 18 hrs by CLSI method; format: functional; details: time 16-18 hrs, read-out: MIC100
[18] = test system: Staphylococcus aureus; test: Antibacterial activity against methicillin-resistant Staphylococcus aureus clinical isolate M-12 assessed as inhibition of visible growth incubated for 16 to 18 hrs by CLSI method; format: functional; details: time 16-18 hrs, read-out: MIC100
[19] = test system: Staphylococcus aureus; test: Antibacterial activity against methicillin-resistant Staphylococcus aureus clinical isolate M-19 assessed as inhibition of visible growth incubated for 16 to 18 hrs by CLSI method; format: functional; details: time 16-18 hrs, read-out: MIC100
[20] = test system: Enterococcus faecalis; test: Antibacterial activity against Enterococcus faecalis ATCC29212 assessed as inhibition of visible growth incubated for 16 to 18 hrs by CLSI method; format: functional; details: time 16-18 hrs, read-out: MIC100

Row | SMILES | MIC [1] [µg/mL] | MIC [2] [µg/mL] | MIC [3] [µg/mL] | MIC [4] [µg/mL] | MIC [5] [µg/mL] | selectivity ratio [6] | MIC [7] [µg/mL] | MIC [8] [µg/mL] | MIC [9] [µg/mL] | MIC [10] [µg/mL] | MIC [11] [µg/mL] | MIC [12] [µg/mL] | MIC [13] [µg/mL] | MIC [14] [µg/mL] | MIC [15] [µg/mL] | HC50 at 1 h [16] [µg/mL] | MIC [17] [µg/mL] | MIC [18] [µg/mL] | MIC [19] [µg/mL] | MIC [20] [µg/mL]
1 | C=CCc1ccc(OCCCC[N+](C)(C)CC(=O)NCCCCC)c(-c2ccc(OCCCC[N+](C)(C)CC(=O)NCCCCC)c(CC=C)c2)c1.[Br-].[Br-] | 4 | 8 | 2 | 2 | 2 | 112 | 16 | 2 | 8 | 2 | 2 | 2 | 16 | 1 | 2 | 448 | 2 | 2 | 2 | 2
2 | C=CCc1ccc(O)c(-c2cc(CC=C)ccc2OCCCC[N+](C)(C)CC(=O)N(CCCC)CCCC)c1.[Br-] | 2 | 64 | 8 | 8 | 1 | 356 | 8 | 8 | 32 | 8 | 8 | 2 | 32 | 16 | 8 | 712 | 8 | 16 | 8 | 4
3 | C=CCc1ccc(OCCC[N+](C)(C)CC(=O)N(CCCC)CCCC)c(-c2ccc(OCCC[N+](C)(C)CC(=O)N(CCCC)CCCC)c(CC=C)c2)c1.[Br-].[Br-] | 4 | 8 | 8 | 8 | 2 | 270 | 4 | 8 | 16 | 8 | 8 | 1 | 4 | 8 | 8 | 1080 | 8 | 8 | 8 | 2
4 | C=CCc1ccc(O)c(-c2cc(CC=C)ccc2OCCC[N+](C)(C)CC(=O)NCCCCC)c1.[Br-] | 2 | 16 | 2 | 2 | 1 | 339 | 8 | 2 | 32 | 2 | 2 | 1 | 16 | 8 | 2 | 678 | 4 | 2 | 2 | 4
5 | C=CCc1ccc(O)c(-c2cc(CC=C)ccc2OCCC[N+](C)(C)CC(=O)NCCCCCC)c1.[Br-] | 2 | 16 | 2 | 2 | 0.5 | 372 | 8 | 2 | 16 | 2 | 2 | 0.5 | 16 | 4 | 2 | 743 | 4 | 2 | 2 | 2
6 | C=CCc1ccc(O)c(-c2cc(CC=C)ccc2OCCCC[N+](C)(C)CC(=O)NCCCCC)c1.[Br-] | 2 | 32 | 4 | 4 | 2 | 322 | 8 | 4 | 32 | 4 | 4 | 4 | 32 | 4 | 4 | 643 | 4 | 4 | 4 | 8
7 | C=CCc1ccc(OCCCC[N+](C)(C)CC(=O)NCC)c(-c2ccc(OCCCC[N+](C)(C)CC(=O)NCC)c(CC=C)c2)c1.[Br-].[Br-] | 2 | 32 | 8 | 16 | 4 | 442 | 4 | 8 | 8 | 8 | 8 | 8 | 8 | 16 | 8 | 883 | 8 | 8 | 8 | 2
8 | C=CCc1ccc(OCC[N+](C)(C)CC(=O)NCCCCCC)c(-c2ccc(OCC[N+](C)(C)CC(=O)NCCCCCC)c(CC=C)c2)c1.[Br-].[Br-] | 8 | 32 | 8 | 16 | 4 | 117 | 32 | 4 | 32 | 4 | 8 | 8 | 32 | 8 | 8 | 934 | 8 | 8 | 8 | 4
9 | C=CCc1ccc(OCCC[N+](C)(C)CC(=O)NCCCCC)c(-c2ccc(OCCC[N+](C)(C)CC(=O)NCCCCC)c(CC=C)c2)c1.[Br-].[Br-] | 2 | 8 | 2 | 2 | 8 | 546 | 16 | 2 | 8 | 4 | 2 | 4 | 16 | 4 | 4 | 1090 | 4 | 2 | 2 | 4
10 | C=CCc1ccc(OCC[N+](C)(C)CC(=O)NCC)c(-c2ccc(OCC[N+](C)(C)CC(=O)NCC)c(CC=C)c2)c1.[Br-].[Br-] | 8 | 64 | 4 | 4 | 4 | 79.9 | 32 | 4 | 32 | 4 | 4 | 4 | 32 | 8 | 4 | 639 | 8 | 8 | 4 | 8
11 | C=CCc1ccc(O)c(-c2cc(CC=C)ccc2OCCC[N+](C)(C)CC(=O)NCCCC)c1.[Br-] | 2 | 32 | 4 | 4 | 1 | 298 | 8 | 4 | 32 | 4 | 4 | 1 | 32 | 8 | 4 | 596 | 4 | 4 | 4 | 4
12 | C=CCc1ccc(O)c(-c2cc(CC=C)ccc2OCC[N+](C)(C)CC(=O)NCCCCCC)c1.[Br-] | 4 | 64 | 4 | 4 | 4 | 181 | 32 | 8 | 64 | 4 | 8 | 4 | 64 | 8 | 4 | 723 | 8 | 8 | 8 | 16

Reference: ChEMBL document CHEMBL4831516, “Development of Membrane-Active Honokiol/Magnolol Amphiphiles as Potent Antibacterial Agents against Methicillin-Resistant Staphylococcus aureus (MRSA)” (J Med Chem, 2021)
